pIC50: −log10 of the molar value. Calls of active or inactive are those of the source. The rule behind the calls is not given here.
Legend:
[1] = Cytotoxicity against C57BL/6 mouse spleen cells assessed as growth inhibition incubated for 24 hrs at 37 degC by propidium iodide stain based flow cytometry method; assay type: cell-based; details: for ED50: mouse, spleen, 24 h; for CC50 at 24 h: C57BL/6, mouse, spleen cells, read-out: ED50
Trypanosoma cruzi [2] = assay: Antiparasitic activity against trypomastigote form of Trypanosoma cruzi Tulahuen-lacZ infected in LLC-MK2 ATCC cells assessed as parasite viability incubated for 4 days at 37 degC by chlorophenol beta-D-galactopyranose substrate based trypanocidal assay; assay type: functional, organism-based; details: LLC-MK2, 96 h
Trypanosoma cruzi [3] = assay: Antiparasitic activity against trypomastigote form of Trypanosoma cruzi Y strain assessed as parasite viability at 62.5 to 500 uM incubated for 24 hrs; assay type: functional, organism-based
Trypanosoma cruzi [4] = assay: Antiparasitic activity against amastigote form of Trypanosoma cruzi Y strain infected in bone marrow macrophage cells assessed as amastigote viability incubated for 4 days by rapid panoptic stain based microscopy method; assay type: functional, organism-based; details: 96 h
[5] = Selectivity index, ratio of ED50 for C57BL/6 mouse spleen cells to IC50 for Trypanosoma cruzi Tulaheun; assay type: functional
Trypanosoma cruzi [6] = assay: Antiparasitic activity against trypomastigote form of Trypanosoma cruzi Y strain infected in Swiss mouse assessed as reduction in blood trypomastigote viability at 100 mg/kg/day, po starting on day 5 post-infection and followed for 10 consecutive days by light microscopy method; assay type: functional, organism-based
[7] = Solubility of the compound in water; assay type: physicochemical; details: buffer
Trypanosoma cruzi [8] = assay: Potency index, ratio of IC50 of benznidazole for Trypanosoma cruzi Tulahuen to IC50 of test compound for Trypanosoma cruzi Tulahuen; assay type: functional

| SMILES | ED50 [1] | pIC50 (Trypanosoma cruzi [2]) | CC50 at 24 h [1] | other results |
| --- | --- | --- | --- | --- |
| O=C(Cn1nncc1-c1cccc([N+](=O)[O-])c1)NCc1ccccc1 | Non-toxic | 4.07 | – | Activity (Trypanosoma cruzi [3]): inactive |
| O=C(Cn1cc(-c2cccc(F)c2)nn1)NCc1ccccc1 | Non-toxic | < 4.00 | – | – |
| COc1cccc(-c2cn(CC(=O)NCc3ccccc3)nn2)c1 | – | 4.40 | 840 µM | pIC50 (Trypanosoma cruzi [4]): 4.21; Selectivity Index [5]: 21 |
| O=C(Cn1nncc1-c1ccc([N+](=O)[O-])cc1)NCc1ccccc1 | Non-toxic | < 4.00 | – | Activity (Trypanosoma cruzi [3]): inactive |
| O=C(Cn1cc(-c2ccccc2C(F)(F)F)nn1)NCc1ccccc1 | Non-toxic | < 4.00 | – | – |
| COc1cccc(-c2cnnn2CC(=O)NCc2ccccc2)c1 | – | 4.30 | > 2000 µM | pIC50 (Trypanosoma cruzi [4]): 4.22 |
| COc1ccc(-c2cn(CC(=O)NCc3ccccc3)nn2)cc1 | Non-toxic | < 4.00 | – | – |
| Nc1ccc(-c2cn(CC(=O)NCc3ccccc3)nn2)cc1 | – | < 4.00 | 1240 µM | Selectivity Index [5]: 7.7 |
| O=C(Cn1cc(CO)nn1)NCc1ccccc1 | – | < 3.30 | 490 µM | – |
| O=C(O)CCc1cn(CC(=O)NCc2ccccc2)nn1 | – | < 3.30 | 1420 µM | – |
| O=C(Cn1cc(C(=O)O)nn1)NCc1ccccc1 | Non-toxic | < 4.00 | – | – |
| COc1cc(OC)cc(-c2cn(CC(=O)NCc3ccccc3)nn2)c1 | Non-toxic | < 4.00 | – | – |
| CC(C)(O)c1cn(CC(=O)NCc2ccccc2)nn1 | – | < 3.40 | 1600 µM | – |
| Cc1ccc(-c2cn(CC(=O)NCc3ccccc3)nn2)cc1 | Non-toxic | < 4.00 | – | – |
| O=C(Cn1ccnc1[N+](=O)[O-])NCc1ccccc1 [BENZNIDAZOLE] | – | 4.47 | – | pIC50 (Trypanosoma cruzi [4]): 4.80; Activity (Trypanosoma cruzi [3]): Active |
| O=C(Cn1cc(-c2ccc([N+](=O)[O-])cc2)nn1)NCc1ccccc1 | – | 5.15 | 800 µM | pIC50 (Trypanosoma cruzi [4]): 4.39; Selectivity Index [5]: 114.3; Activity (Trypanosoma cruzi [6]): Active; solubility [7]: Insoluble; Activity (Trypanosoma cruzi [3]): Active; Ratio IC50 (Trypanosoma cruzi [8]): 5 |
| NCc1cn(CC(=O)NCc2ccccc2)nn1 | – | < 3.30 | > 2000 µM | – |
| O=C(Cn1cc(-c2cccc([N+](=O)[O-])c2)nn1)NCc1ccccc1 | – | < 4.00 | > 2000 µM | Activity (Trypanosoma cruzi [3]): inactive |
| O=C(Cn1nncc1CO)NCc1ccccc1 | – | < 4.00 | > 2000 µM | – |
| O=C(O)CCCCc1cn(CC(=O)NCc2ccccc2)nn1 | – | < 3.30 | 1080 µM | – |
| O=C(Cn1cc(-c2ccccc2[N+](=O)[O-])nn1)NCc1ccccc1 | Non-toxic | < 4.00 | – | Activity (Trypanosoma cruzi [3]): inactive |
| O=C(Cn1cc(-c2cccc(C(F)(F)F)c2)nn1)NCc1ccccc1 | Non-toxic | < 4.00 | – | – |
| Nc1cccc(-c2cn(CC(=O)NCc3ccccc3)nn2)c1 | – | < 4.00 | 800 µM | Selectivity Index [5]: 4.4 |
| O=C(Cn1cc(CCCCO)nn1)NCc1ccccc1 | – | < 3.40 | 1700 µM | – |
| CCC(O)Cc1cn(CC(=O)NCc2ccccc2)nn1 (stereo not drawn) | – | < 3.30 | 630 µM | – |
| CC(C)(C)OC(=O)NCc1cn(CC(=O)NCc2ccccc2)nn1 | – | < 4.00 | > 2000 µM | – |
| Cc1ccccc1-c1cn(CC(=O)NCc2ccccc2)nn1 | – | < 4.00 | 940 µM | Selectivity Index [5]: 3.2 |
| O=C(Cn1cc(C(=O)OCc2ccccc2)nn1)NCc1ccccc1 | – | < 3.30 | 720 µM | – |
